Results as given in the supplement of paper PMC10307832.

Tests used:
Experiment in all cases: relative viability (nuclei count vs DMSO), 5 days (fraction); higher = more cells survive
Vismodegib + Lapatinib = compound: CS(=O)(=O)c1ccc(C(=O)Nc2ccc(Cl)c(-c3ccccn3)c2)c(Cl)c1 [Vismodegib] + CS(=O)(=O)CCNCc1ccc(-c2ccc3ncnc(Nc4ccc(OCc5cccc(F)c5)c(Cl)c4)c3c2)o1 [Lapatinib] (partner 2 µM)
Procedure, shortened: (§1)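 Medians of duplicate plates are given as relative viability. That measure is the nuclei count in treated wells divided by the count in vehicle wells. Counts were taken on 4× images of lung cancer cell lines in 1536-well plates, 5 days after pin-tool dosing the day after seeding with one drug alone or a fixed anchor-drug dose plus five library-drug doses (not always all listed) in √10 steps.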

Vismodegib + Foretinib = compound: CS(=O)(=O)c1ccc(C(=O)Nc2ccc(Cl)c(-c3ccccn3)c2)c(Cl)c1 [Vismodegib] + COc1cc2c(Oc3ccc(NC(=O)C4(C(=O)Nc5ccc(F)cc5)CC4)cc3F)ccnc2cc1OCCCN1CCOCC1 [Foretinib] (partner 0.25 µM)
Procedure, shortened: as §1

VE-821 + Palbociclib = compound: CS(=O)(=O)c1ccc(-c2cnc(N)c(C(=O)Nc3ccccc3)n2)cc1 [VE-821] + CC(=O)c1c(C)c2cnc(Nc3ccc(N4CCNCC4)cn3)nc2n(C2CCCC2)c1=O [Palbociclib] (partner 0.5 µM)
Procedure, shortened: as §1

Vismodegib + Bortezomib = compound: CS(=O)(=O)c1ccc(C(=O)Nc2ccc(Cl)c(-c3ccccn3)c2)c(Cl)c1 [Vismodegib] + CC(C)C[C@H](NC(=O)[C@H](Cc1ccccc1)NC(=O)c1cnccn1)B(O)O [Bortezomib] (partner 0.002 µM)
Procedure, shortened: as §1

| Cell Line | relative viability (Vismodegib + Lapatinib; first compound 0.08 µM) | relative viability (Vismodegib + Lapatinib; first compound 0.253 µM) | relative viability (Vismodegib + Lapatinib; first compound 0.8 µM) | relative viability (Vismodegib + Lapatinib; first compound 2.53 µM) | relative viability (Vismodegib + Lapatinib; first compound 8 µM) | relative viability (Vismodegib + Foretinib; first compound 0.08 µM) | relative viability (Vismodegib + Foretinib; first compound 0.253 µM) | relative viability (Vismodegib + Foretinib; first compound 0.8 µM) | relative viability (Vismodegib + Foretinib; first compound 2.53 µM) | relative viability (Vismodegib + Foretinib; first compound 8 µM) | relative viability (VE-821 + Palbociclib; first compound 0.08 µM) | relative viability (VE-821 + Palbociclib; first compound 0.253 µM) | relative viability (VE-821 + Palbociclib; first compound 0.8 µM) | relative viability (VE-821 + Palbociclib; first compound 2.53 µM) | relative viability (VE-821 + Palbociclib; first compound 8 µM) | relative viability (Vismodegib + Bortezomib; first compound 0.08 µM) | relative viability (Vismodegib + Bortezomib; first compound 0.253 µM) | relative viability (Vismodegib + Bortezomib; first compound 0.8 µM) | relative viability (Vismodegib + Bortezomib; first compound 2.53 µM) | relative viability (Vismodegib + Bortezomib; first compound 8 µM) |
| --- | --- | --- | --- | --- | --- | --- | --- | --- | --- | --- | --- | --- | --- | --- | --- | --- | --- | --- | --- | --- |
| H3255 | 0.244 | 0.24 | 0.239 | 0.268 | 0.239 | 0.865 | 0.866 | 0.822 | 0.888 | 0.878 | 0.288 | 0.332 | 0.332 | 0.326 | 0.319 | 0.855 | 0.632 | 0.596 | 0.762 | 0.753 |
| HARA | 0.858 | 0.713 | 0.662 | 0.797 | 0.634 | 0.977 | 0.992 | 0.41 | 0.805 | 1.03 | 0.227 | 0.29 | 0.239 | 0.279 | 0.299 | 1.08 | 1.1 | 1.11 | 1.19 | 1.17 |
| HCC-15 | 0.883 | 0.854 | 0.823 | 0.882 | 0.74 | 1.01 | 0.964 | 1.04 | 1.09 | 1.04 | 0.822 | 0.767 | 0.809 | 0.907 | 0.748 | 0.978 | 1.07 | 0.938 | 1.09 | 1 |
| HCC-78 | 0.278 | 0.646 | 0.667 | 0.701 | 0.746 | 0.515 | 0.538 | 0.511 | 0.593 | 0.532 | 0.491 | 0.453 | 0.482 | 0.489 | 0.461 |  | 0.498 | 0.488 | 0.549 | 0.4 |
| HCC-366 | 1.08 | 1.01 | 1.1 | 1.01 | 1 | 0.893 | 0.925 | 0.877 | 0.956 | 0.864 | 0.668 | 0.378 | 0.303 | 0.0939 | 0.0558 | 1.06 | 1.03 | 1.06 | 0.934 | 1.06 |
| HCC-827 | 0.162 | 0.163 | 0.185 | 0.192 | 0.214 | 0.995 | 1.03 | 0.972 | 1.01 | 0.866 | 0.515 | 0.516 | 0.405 | 0.531 | 0.522 | 1.05 | 1.06 | 0.982 | 1.14 | 0.985 |
| HOP-62 | 0.981 | 0.891 | 0.934 | 1.04 | 0.926 | 1.1 | 1.03 | 1.1 | 1.07 | 1.1 | 0.508 | 0.459 | 0.471 | 0.463 | 0.461 | 0.863 | 0.657 | 0.882 | 0.743 | 0.637 |
| LC-2-ad | 0.917 | 0.963 | 0.993 | 0.943 | 0.954 | 0.924 | 0.848 | 0.893 | 0.847 | 1.02 | 0.557 | 0.473 | 0.559 | 0.504 | 0.514 | 1.06 | 0.987 | 0.981 | 0.947 | 0.871 |
| LCLC-97TM1 |  |  | 0.663 |  | 1.03 | 0.953 | 0.934 | 0.869 | 0.97 | 0.912 | 0.257 | 0.238 | 0.25 | 0.267 | 0.255 | 0.741 | 0.652 | 0.804 | 0.694 | 0.671 |
| LOU-NH91 | 0.757 | 0.798 | 0.663 | 0.745 | 0.841 | 0.943 | 0.925 | 0.905 | 0.867 | 0.912 | 0.543 | 0.512 | 0.545 | 0.548 | 0.565 | 0.507 | 0.537 | 0.471 | 0.389 | 0.498 |
| LU99A | 0.928 | 1.04 | 1.04 | 1.04 | 0.979 | 0.866 | 0.775 | 0.751 | 0.725 | 0.79 | 0.426 | 0.456 | 0.434 | 0.408 | 0.267 | 1.12 | 1.13 | 1.25 | 1.09 | 1.15 |
| LXF-289 | 0.912 | 0.894 | 0.916 | 0.962 | 0.875 | 0.943 | 0.913 | 1.01 | 0.97 | 0.922 | 0.583 | 0.606 | 0.716 | 0.677 | 0.712 | 0.985 | 0.977 | 1.02 | 0.965 | 0.944 |
| NCI-H23 | 1.1 | 1.08 | 1.09 | 1.11 | 1.09 | 0.925 | 0.899 | 1.01 | 0.593 | 1.2 | 0.562 | 0.49 | 0.466 | 0.352 | 0.274 | 1.16 | 1.01 | 0.931 | 0.986 | 0.944 |
| NCI-H322M | 0.631 | 0.646 | 0.519 | 0.565 | 0.572 | 1.01 | 0.965 | 1.01 | 0.87 | 0.97 | 0.446 | 0.462 | 0.463 | 0.483 | 0.443 | 1.25 | 1.12 | 1.22 | 1.23 | 1.13 |
| NCI-H460 | 0.903 | 0.887 | 1.2 | 0.823 | 1.03 | 0.948 | 0.951 | 1.04 | 0.975 | 1.08 | 0.203 | 0.166 | 0.159 | 0.0414 | 0.0344 | 1.13 | 0.929 | 1.19 | 0.998 | 1.2 |
| NCI-H520 | 0.856 | 0.921 | 0.977 | 0.844 | 1.01 | 0.839 | 0.678 | 0.697 | 0.709 | 0.682 | 0.243 | 0.242 | 0.177 | 0.269 | 0.188 | 0.443 | 0.812 | 0.619 | 0.697 | 0.668 |
